In the NIST ThermoML archive (doi:10.1016/j.fluid.2007.09.028):
Numbers after ± are expanded uncertainties.

Test: xn = mol fraction of the nth substance listed
Conditions: 101 kPa, Liquid

Clc1ccccc1 [chlorobenzene] + CCCCO
mass density [kg/m3]
Conditions | 288.15 K | 293.15 K | 298.15 K | 303.15 K | 308.15 K | 313.15 K
x2 = 0 | 1111.81 ± 0.3 | 1106.43 ± 0.29 | 1101.04 ± 0.28 | 1095.64 ± 0.28 | 1090.23 ± 0.27 | 1084.82 ± 0.26
x2 = 0.0491 | 1098.36 ± 0.29 | 1092.97 ± 0.28 | 1087.57 ± 0.27 | 1082.16 ± 0.26 | 1076.75 ± 0.25 | 1071.34 ± 0.25
x2 = 0.1013 | 1084.16 ± 0.27 | 1078.81 ± 0.26 | 1073.45 ± 0.25 | 1068.07 ± 0.24 | 1062.67 ± 0.23 | –
x2 = 0.1492 | 1071.13 ± 0.25 | 1065.83 ± 0.24 | 1060.5 ± 0.23 | 1055.16 ± 0.22 | 1049.8 ± 0.21 | 1044.42 ± 0.2
x2 = 0.2004 | 1057.1 ± 0.23 | 1051.85 ± 0.22 | 1046.57 ± 0.21 | 1041.28 ± 0.2 | 1035.97 ± 0.2 | 1030.63 ± 0.19
x2 = 0.2501 | 1043.32 ± 0.21 | 1038.12 ± 0.2 | 1032.91 ± 0.19 | 1027.68 ± 0.18 | 1022.42 ± 0.18 | 1017.14 ± 0.17
x2 = 0.3 | 1029.41 ± 0.19 | 1024.28 ± 0.18 | 1019.13 ± 0.17 | 1013.96 ± 0.17 | 1008.76 ± 0.16 | 1003.55 ± 0.15
x2 = 0.3507 | 1015.11 ± 0.17 | 1010.04 ± 0.16 | 1004.96 ± 0.15 | 999.858 ± 0.15 | 994.721 ± 0.15 | 989.562 ± 0.16
x2 = 0.4 | 1001.06 ± 0.15 | 996.06 ± 0.15 | 991.039 ± 0.16 | 985.993 ± 0.17 | 980.92 ± 0.18 | 975.825 ± 0.18
x2 = 0.4502 | 986.537 ± 0.17 | 981.622 ± 0.18 | 976.686 ± 0.18 | 971.72 ± 0.19 | 966.72 ± 0.2 | 961.715 ± 0.21
x2 = 0.5 | 972.013 ± 0.19 | 967.172 ± 0.2 | 962.314 ± 0.21 | 957.429 ± 0.21 | 952.506 ± 0.22 | 947.561 ± 0.23
x2 = 0.5499 | 957.246 ± 0.22 | 952.491 ± 0.22 | 947.717 ± 0.23 | 942.914 ± 0.24 | 938.072 ± 0.24 | 933.199 ± 0.25
x2 = 0.5998 | 942.296 ± 0.24 | 937.639 ± 0.25 | 932.95 ± 0.26 | 928.23 ± 0.26 | 923.477 ± 0.27 | 918.689 ± 0.28
x2 = 0.6504 | 926.891 ± 0.27 | 922.329 ± 0.27 | 917.738 ± 0.28 | 913.116 ± 0.29 | 908.455 ± 0.29 | 903.772 ± 0.3
x2 = 0.7002 | 911.543 ± 0.29 | 907.078 ± 0.3 | 902.582 ± 0.31 | 898.054 ± 0.31 | 893.49 ± 0.32 | 888.906 ± 0.33
x2 = 0.749 | 896.297 ± 0.32 | 891.927 ± 0.32 | 887.529 ± 0.33 | 883.097 ± 0.34 | 878.634 ± 0.34 | 874.13 ± 0.35
x2 = 0.7995 | 880.209 ± 0.34 | 875.948 ± 0.35 | 871.658 ± 0.36 | 867.339 ± 0.36 | 862.977 ± 0.37 | 858.585 ± 0.38
x2 = 0.849 | 864.175 ± 0.37 | 860.018 ± 0.38 | 855.838 ± 0.38 | 851.632 ± 0.39 | 847.387 ± 0.4 | 843.125 ± 0.4
x2 = 0.9006 | 847.199 ± 0.4 | 843.162 ± 0.4 | 839.105 ± 0.41 | 835.018 ± 0.42 | 830.894 ± 0.42 | 826.737 ± 0.43
x2 = 0.9505 | 830.398 ± 0.43 | 826.483 ± 0.43 | 822.545 ± 0.44 | 818.578 ± 0.44 | 814.579 ± 0.45 | 810.547 ± 0.46
